Data reported in patent publication US20240360151A1 (SANOFI, priority 2023, published 2024).

Assays:
[1] = target: T1, NLRP3 inflammasome (Homo sapiens, UniProt Q96P20); experiment: IL-1β secretion assay (NLRP3 IC50) in LPS-primed, nigericin-activated THP-1 cells, HTRF; format: cell-based; details: monocytic THP-1 cells; LPS 10 ng/mL 3 h priming, then compound + nigericin 10 μM 2 h; relative IC50, 10 concentrations, geometric mean
T1 construct: endogenous in cells; host or cells: THP-1 monocytic cells
Summary of the method: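 THP-1 cells primed with LPS 10 ng/mL for 3 h at 37° C., then compound (10-point 1:3 dilution, 0.1% DMSO) added with 10 μM nigericin for 2 h. Supernatant IL-1β measured by HTRF; relative IC50 from a 4-parameter logistic fit, reported as geometric mean.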

[2] = system: NF-kB pathway (TNF-α secretion by THP-1 cells); experiment: TNF-α secretion assay in LPS-stimulated THP-1 cells, Lumit immunoassay; format: cell-based, human; details: Homo sapiens, THP-1, 3 h, monocytic THP-1 cells, LPS 10 ng/mL, relative IC50, 10 concentrations, geometric mean
Summary of the method: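 THP-1 monocytes in RPMI with 5% FBS were treated with compound, then stimulated with 10 ng/mL LPS for 3 h. Secreted TNF-α was measured in-plate by Lumit immunoassay. Relative IC50 came from 10-concentration curves fitted with a 4-parameter logistic model, reported as geometric mean.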

T1 sequence (Q96P20 whole entry): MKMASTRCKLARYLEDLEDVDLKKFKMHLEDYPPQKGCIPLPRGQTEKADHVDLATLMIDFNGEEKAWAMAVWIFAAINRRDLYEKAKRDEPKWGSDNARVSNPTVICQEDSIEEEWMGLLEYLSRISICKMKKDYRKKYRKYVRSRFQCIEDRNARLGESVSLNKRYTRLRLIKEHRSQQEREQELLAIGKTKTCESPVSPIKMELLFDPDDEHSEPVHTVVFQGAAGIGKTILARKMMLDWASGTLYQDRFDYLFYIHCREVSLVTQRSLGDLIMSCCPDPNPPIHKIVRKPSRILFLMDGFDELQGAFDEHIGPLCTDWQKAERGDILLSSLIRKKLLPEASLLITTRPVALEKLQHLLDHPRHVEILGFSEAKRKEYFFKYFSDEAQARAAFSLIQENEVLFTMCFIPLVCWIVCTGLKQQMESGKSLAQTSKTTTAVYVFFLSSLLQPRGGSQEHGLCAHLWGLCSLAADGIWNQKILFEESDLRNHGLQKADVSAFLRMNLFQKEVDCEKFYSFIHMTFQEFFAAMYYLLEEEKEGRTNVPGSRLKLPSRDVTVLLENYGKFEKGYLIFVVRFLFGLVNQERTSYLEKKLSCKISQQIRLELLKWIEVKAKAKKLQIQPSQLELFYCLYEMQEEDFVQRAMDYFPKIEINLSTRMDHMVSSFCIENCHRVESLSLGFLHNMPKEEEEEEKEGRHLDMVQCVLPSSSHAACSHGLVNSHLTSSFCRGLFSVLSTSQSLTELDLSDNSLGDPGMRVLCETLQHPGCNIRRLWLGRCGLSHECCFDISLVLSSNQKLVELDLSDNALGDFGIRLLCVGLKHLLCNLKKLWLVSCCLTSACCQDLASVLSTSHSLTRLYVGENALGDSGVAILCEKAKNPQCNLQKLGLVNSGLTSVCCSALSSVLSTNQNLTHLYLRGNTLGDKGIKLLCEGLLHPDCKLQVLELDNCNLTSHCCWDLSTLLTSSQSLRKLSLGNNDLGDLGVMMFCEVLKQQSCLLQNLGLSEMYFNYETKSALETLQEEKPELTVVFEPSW

Row | SMILES | IC50 [1] [nM] | IC50 [2] [nM]
1 | Cc1cc(C)c(-c2cc(C)c(N3CCO[C@@H]4CCN(C)C[C@@H]43)nn2)c(O)c1 [Example 434, 2-[6-[(4aS,8aR)-6-methyl-3,4a,5,7,8,8a-hexahydro-2H-pyrido[4,3-b][1,4]oxazin-4-yl]-5-methyl-pyridazin-3-yl]-3,5-dimethyl-phenol] | 42 | > 10000
2 | CCN1CC[C@H]2OCCN(c3cc(C)c(-c4ccc(C)cc4O)nn3)[C@H]2C1 [Example 435, 2-[6-[(4aS,8aR)-6-ethyl-3,4a,5,7,8,8a-hexahydro-2H-pyrido[4,3-b][1,4]oxazin-4-yl]-4-methyl-pyridazin-3-yl]-5-methyl-phenol] | 3 | > 10000
3 | CCc1cc(N2CCO[C@@H]3CCN(C)C[C@@H]32)nnc1-c1ccc(C(F)(F)F)cc1O [Example 443, 2-[6-[(4aS,8aR)-6-methyl-3,4a,5,7,8,8a-hexahydro-2H-pyrido[4,3-b][1,4]oxazin-4-yl]-4-ethyl-pyridazin-3-yl]-5-(trifluoromethyl)phenol] | 10 | > 10000

Stronger by IC50 [1], values ahead:

Row | IC50 [1] [nM] | IC50 [2] [nM] | SMILES
4 | 2 | > 10000 | CCN1CC[C@H]2OCCN(c3cc(C)c(-c4ccc(C(F)(F)F)cc4O)nn3)[C@H]2C1 [Example 436, 2-[6-[(4aS,8aR)-6-ethyl-3,4a,5,7,8,8a-hexahydro-2H-pyrido[4,3-b][1,4]oxazin-4-yl]-4-methyl-pyridazin-3-yl]-5-(trifluoromethyl)phenol]
5 | 1 | > 10000 | CCN1CC[C@H]2OCCN(c3cc(C)c(-c4ccc(Cl)cc4O)nn3)[C@H]2C1 [Example 437, 2-[6-[(4aS,8aR)-6-ethyl-3,4a,5,7,8,8a-hexahydro-2H-pyrido[4,3-b][1,4]oxazin-4-yl]-4-methyl-pyridazin-3-yl]-5-chloro-phenol]
